This note sets out measurements from patent US20210330650A1, “SPIROCHROMANE DERIVATIVES” (RICHTER GEDEON NYRT., priority 2018, published 2021).

The target in one assay is T1, human α7 nAchR (Homo sapiens, UniProt P36544).
T1 construct: expressed in transfected cells
Briefly: Human α7 nicotinic acetylcholine receptor [Ca2+]i assay (Ca2+ fluorometry, PAM concentration-response). It is filed as cell-based. Conditions: Flp-In 293 cells expressing human α7 nAchR and human RIC-3; in presence of saturating agonist (mostly PNU-282987, 1 μM). The protocol:
Human α7 Nicotinic Acetylcholine Receptor [Ca2+]i Assay
Cells: Flp-In 293 cells stably expressing human α7 nAchR and human RIC-3 (α7 cells, generated in house.)
Materials: 96-well plates coated with PDL (Falcon), culture medium, assay buffer, DMSO, FLIPR Calcium 5 kit (Molecular Devices), probenecid, agonist and PAM test compounds.
Brief Description of the Method (Ca^2+ Fluorometry)
α7 cells stably expressing human α7 nAchR were cultured in the medium detailed above, and were split twice a week. For the fluorometric measurements of cytosolic Ca^2+ ion concentration ([Ca^2+]i) cells were seeded in 96-well microplates at a density of 60000 cells/well and maintained overnight in a tissue culture incubator at 37° C. under an atmosphere of 95% air/5% CO2. The plating medium was identical with the culture medium. 50 μl of the growth medium was aspirated with a cell washer (BioTek Elx405UCVWS). Then 50 μl/well Calcium 5 kit diluted 2-fold in assay buffer was added manually using an 8-channel pipette. After an incubation period (20 minutes, 37° C.) 50 μl/well assay buffer containing vehicle (DMSO, 4% added) or reference α7 PAMs (4× of the final concentration) were added manually and the cells were incubated for an additional 10 minutes at 37° C. Baseline and agonist-evoked [Ca^2+]i-changes were monitored with FlexStation II (Molecular Devices, Sunnyvale, Calif.), a plate reader fluorometer with integrated 8-channel fluid addition capability. Fluorescence measurements were carried out at 37° C. The dye was excited at 485 nm, emission was sampled at 525 nm at 1.4-s intervals. Baseline was recorded for 20 seconds followed by agonist stimulation. 50 μl 4× concentrated agonist solution was added to the cells using the pipettor of FlexStation II and fluorescence was monitored for an additional 40 seconds. Final DMSO concentration was 1% for all treatments. To achieve this, a series of DMSO stock solutions were prepared from all test compounds. These stocks were stored under 0° C. and were further diluted in assay buffer to obtain the desired final concentration immediately before the measurement. Agonist and PAM concentration-response studies were conducted in the presence of saturating concentrations of PAMs (mostly PNU-120596, 5 μM) and agonists (mostly PNU-282987, 1 μM), respectively. Results were expressed as ΔF/F values using SoftMax Pro software (Molecular Devices), where F was the resting fluorescence preceding agonist application and ΔF was the increase in fluorescence at a given time (ΔF=maximum fluorescence intensity values after stimulation minus average fluorescence intensity values before stimulation). In all experiments, all treatments were measured in multiple wells in parallel, and the mean ΔF/F values were used for analysis.

Another assay concerns Male NMRI mice. The assay is described as follows: Place recognition test (Y-maze), reversal of scopolamine-induced amnesia. The assay is classed as in vivo. Conditions: scopolamine 1 mg/kg i.p. As to the method: In Vivo Pharmacology (Place Recognition Test)
Animals: Male NMRI mice (Toxicoop, Hungary)
Substances: Scopolamine was dissolved in saline and administered at 1 mg/kg dose i.p. Test compounds were administered 30 minutes before the acquisition trial (T1) and scopolamine after the acquisition trial at a volume of 0.1 ml/10 g.
Procedure: The task was carried out in a transparent plexiglass Y-maze (each arm has a length of 40 cm, an inner width of 11 cm and a height of 30 cm). Numerous visual cues were placed around the arms and were kept constant during the experiment. The test consisted of two trials (T1 and T2) separated by an intertrial interval of 30 minutes. Mice were placed in the starting arm of the maze at the beginning of each trial. In T1, one of the symmetric arms of the maze was closed (it will be novel in T2) and the animals were allowed to explore the maze for 5 minutes (acquisition phase). In T2, mice had free access to all three arms for 2 minutes (retrieval phase). The time spent with exploration in the novel and familiar arms during T2 was measured. Differences between the exploration times spent in the familiar vs. novel arms of the maze for each group were evaluated by MANOVA, followed by Duncan post hoc test.

One may read the EC50 as the concentration giving half of the maximal effect.

T1 sequence (P36544 23-502): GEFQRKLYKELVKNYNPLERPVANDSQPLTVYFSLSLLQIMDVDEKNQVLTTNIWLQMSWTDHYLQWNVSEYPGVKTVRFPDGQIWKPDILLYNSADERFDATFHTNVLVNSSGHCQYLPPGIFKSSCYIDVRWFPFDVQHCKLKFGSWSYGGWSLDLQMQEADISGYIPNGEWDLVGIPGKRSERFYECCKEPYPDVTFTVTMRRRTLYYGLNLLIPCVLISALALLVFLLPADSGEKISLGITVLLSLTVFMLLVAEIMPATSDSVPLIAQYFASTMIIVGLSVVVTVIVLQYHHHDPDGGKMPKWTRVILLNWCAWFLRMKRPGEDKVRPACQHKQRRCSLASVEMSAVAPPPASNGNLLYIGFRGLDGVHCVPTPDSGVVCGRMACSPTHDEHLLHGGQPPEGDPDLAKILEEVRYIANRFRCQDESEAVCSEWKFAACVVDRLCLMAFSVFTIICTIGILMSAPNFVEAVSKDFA

For `Cn1ccc2cc(CNC(=O)N3CCC4(CC(=O)c5cc(Cl)ccc5O4)C3)ccc21` (racemic) [Example 5], the EC50 at human α7 nAchR was 210 nM.

With `Cn1ccc2cc(CNC(=O)N3CCC4(CC(=O)c5cc(Cl)ccc5O4)C3)ccc21` (single isomer, unassigned) [Example 5a], the EC50 on human α7 nAchR is 430 nM. The same measure, in the same setting: next, `Cn1ccc2cc(CNC(=O)N3CCC4(CC(=O)c5cc(Cl)ccc5O4)C3)ccc21` (single isomer, unassigned) [Example 5b]: 400 nM. `Cc1cc2cc(CNC(=O)N3CC4(CC(=O)c5cc(F)ccc5O4)C3)ccc2[nH]1` [Example 1, 6′-Fluoro-N-[(2-methyl-1H-indol-5-yl)methyl]-4′-oxo-3′,4′-dihydrospiro[azetidine-3,2′-[1]benzopyran]-1-carboxamide]: the EC50 at human α7 nAchR was found to be 120 nM. In addition, the “reversal of the scopolamine-induced amnesia in the place recognition assay (exploration time novel vs. familiar arm, significance)” value in the assay with Male NMRI mice (1 mg/kg i.p.) is “++ (^++p < 0.01)”.

Take `Cn1ccc2cc(CNC(=O)N3CC4(CC(=O)c5cc(Cl)ccc5O4)C3)ccc21` [Example 3, 6′-chloro-N-[(1-methyl-1H-indol-5-yl)methyl]-4′-oxo-3′,4′-dihydrospiro[azetidine-3,2′-[1]benzopyran]-1-carboxamide]: at human α7 nAchR, the half-maximal effective concentration (EC50) was found to be 120 nM.

Consider `Cn1ccc2cc(CNC(=O)N3CC4(CC(=O)c5ccc(F)cc5O4)C3)ccc21` [Example 6, 7′-fluoro-N-[(1-methyl-1H-indol-5-yl)methyl]-4′-oxo-3′,4′-dihydrospiro[azetidine-3,2′-[1]benzopyran]-1-carboxamide], for which, on human α7 nAchR, the half-maximal effective concentration (EC50) was 190 nM. In addition, the “reversal of the scopolamine-induced amnesia in the place recognition assay (exploration time novel vs. familiar arm, significance)” value in the assay on Male NMRI mice (1 mg/kg i.p.) was “+ (^+p < 0.05)”; with Male NMRI mice (3 mg/kg i.p.), “++ (^++p < 0.01)”; with Male NMRI mice (10 mg/kg i.p.) it was “+++ (^+++p < 0.001)”.

For the compound `Cn1ccc2cc(CNC(=O)N3CC4(CC(=O)c5ccccc5O4)C3)ccc21` [Example 7, N-[(1-methyl-1H-indol-5-yl)methyl]-4′-oxo-3′,4′-dihydrospiro[azetidine-3,2′-[1]benzopyran]-1-carboxamide], the EC50 on human α7 nAchR is 230 nM. In addition, the “reversal of the scopolamine-induced amnesia in the place recognition assay (exploration time novel vs. familiar arm, significance)” value in the assay on Male NMRI mice (1 mg/kg i.p.), with Male NMRI mice (3 mg/kg i.p.) and with Male NMRI mice (10 mg/kg i.p.) was “+++ (^+++p < 0.001)” each time.

Take `Cn1ccc2cc(CNC(=O)N3CCC4(CCc5cc(Cl)ccc5O4)CC3)ccc21` [Example 10, 6-chloro-N-[(1-methyl-1H-indol-5-yl)methyl]-3,4-dihydrospiro[1-benzopyran-2,4′-piperidine]-1′-carboxamide]: the EC50 at human α7 nAchR is 100 nM. `COc1ccc2c(c1)OC1(CCN(C(=O)NCc3ccc4c(ccn4C)c3)CC1)CC2=O` [Example 21]: the concentration giving a half-maximal response (EC50) on human α7 nAchR turned out to be 280 nM. Same read-out and setting: next, `COc1ccc2c(c1)C(=O)CC1(CN(C(=O)NCc3ccc4c(c3)c(Cl)cn4C)C1)O2` [Example 25]: 230 nM. For the compound `O=C1CC2(CN(C(=O)NCc3ccc4[nH]ccc4c3)C2)Oc2ccc(Cl)cc21` [Example 26, 6′-chloro-N-[(1H-indol-5-yl)methyl]-4′-oxo-3′,4′-dihydrospiro[azetidine-3,2′-[1]benzopyran]-1-carboxamide], at human α7 nAchR, the 50% effective concentration (EC50) amounted to 390 nM. The “reversal of the scopolamine-induced amnesia in the place recognition assay (exploration time novel vs. familiar arm, significance)” value in the assay with Male NMRI mice (3 mg/kg i.p.) was “+ (^+p < 0.05)”. For `Cn1cc(Cl)c2cc(CNC(=O)N3CC4(CC(=O)c5ccccc5O4)C3)ccc21` [Example 37], the EC50 at human α7 nAchR was found to be 130 nM.

In the case of `Cn1cc(F)c2cc(CNC(=O)N3CC4(CC(=O)c5cc(F)ccc5O4)C3)ccc21` [Example 38], at human α7 nAchR, the EC50 was determined as 220 nM.

With `Cn1cc(Cl)c2cc(CNC(=O)N3CC4(CC(=O)c5cc(F)ccc5O4)C3)cnc21` [Example 39], on human α7 nAchR, the concentration giving a half-maximal response (EC50) amounted to 730 nM. With `Cc1cc2cc(CNC(=O)N3CC4(CC(=O)c5cc(F)cc(F)c5O4)C3)ccc2[nH]1` [Example 41, 6′,8′-difluoro-N-[(2-methyl-1H-indol-5-yl)methyl]-4′-oxo-3′,4′-dihydrospiro[azetidine-3,2′-[1]benzopyran]-1-carboxamide], at human α7 nAchR, the EC50 stood at 60 nM. Moreover, the “reversal of the scopolamine-induced amnesia in the place recognition assay (exploration time novel vs. familiar arm, significance)” value with Male NMRI mice (1 mg/kg i.p.) and in the assay on Male NMRI mice (3 mg/kg i.p.) was “+ (^+p < 0.05)” each time. Regarding `O=C1CC2(CN(C(=O)NCc3ccc4[nH]c(Cl)cc4c3)C2)Oc2cc(Cl)ccc21` [Example 43, 7′-chloro-N-[(2-chloro-1H-indol-5-yl)methyl]-4′-oxo-3′,4′-dihydrospiro[azetidine-3,2′-[1]benzopyran]-1-carboxamide], on human α7 nAchR, the EC50 is 360 nM. The “reversal of the scopolamine-induced amnesia in the place recognition assay (exploration time novel vs. familiar arm, significance)” value in the assay on Male NMRI mice (1 mg/kg i.p.) is given as “+ (^+p < 0.05)”; in the assay with Male NMRI mice (3 mg/kg i.p.), “+++ (^+++p < 0.001)”; in the assay with Male NMRI mice (10 mg/kg i.p.), “+++ (^+++p < 0.001)”. For the compound `Cn1ccc2cc(CNC(=O)N3CC4(CC(=O)c5cc(C(F)(F)F)ccc5O4)C3)ccc21` [Example 50], the EC50 on human α7 nAchR is 150 nM. As to `Cn1ccc2cc(CNC(=O)N3CC4(CC(=O)c5ccc(C(F)(F)F)cc5O4)C3)ccc21` [Example 52, N-[(1-methyl-1H-indol-5-yl)methyl]-4′-oxo-7′-(trifluoromethyl)-3′,4′-dihydrospiro[azetidine-3,2′-[1]benzopyran]-1-carboxamide], the concentration giving a half-maximal response (EC50) on human α7 nAchR amounted to 130 nM. For the same compound, in the assay on Male NMRI mice (10 mg/kg i.p.), the “reversal of the scopolamine-induced amnesia in the place recognition assay (exploration time novel vs. familiar arm, significance)” value is reported as “+ (^+p < 0.05)”. Take `Cn1cc(Br)c2cc(CNC(=O)N3CC4(CC(=O)c5cc(F)ccc5O4)C3)cnc21` [Example 53]: the concentration giving a half-maximal response (EC50) at human α7 nAchR was determined as 850 nM. Same read-out and setting: next, `Cn1ccc2cc(CNC(=O)N3CC4(CC(=O)c5cc(Cl)cc(Cl)c5O4)C3)cnc21` [Example 58]: 470 nM; `Cn1ccc2cc(CNC(=O)N3CC4(CC(=O)c5ccc(C(F)(F)F)cc5O4)C3)cnc21` [Example 59]: 500 nM. Consider `O=C1CC2(CN(C(=O)NCc3ccc4[nH]c(C(F)(F)F)cc4c3)C2)Oc2cc(F)ccc21` [Example 61, 7′-fluoro-4′-oxo-N-{[2-(trifluoromethyl)-1H-indol-5-yl]methyl}-3′,4′-dihydrospiro[azetidine-3,2′-[1]benzopyran]-1-carboxamide], for which the “reversal of the scopolamine-induced amnesia in the place recognition assay (exploration time novel vs. familiar arm, significance)” value in the assay with Male NMRI mice (3 mg/kg i.p.) was “++ (^++p < 0.01)”; in the assay on Male NMRI mice (10 mg/kg i.p.), “+++ (^+++p < 0.001)”. As for `Cc1cc2cc(CNC(=O)N3CC4(CC(=O)c5ccc(C(F)(F)F)cc5O4)C3)cnc2n1C` [Example 65], the EC50 on human α7 nAchR worked out at 750 nM.

In the case of `O=C1CC2(CN(C(=O)NCc3ccc4[nH]c(C(F)F)cc4c3)C2)Oc2cc(F)ccc21` [Example 69, N-{[2-(difluoromethyl)-1H-indol-5-yl]methyl}-7′-fluoro-4′-oxo-3′,4′-dihydrospiro[azetidine-3,2′-[1]benzopyran]-1-carboxamide], on human α7 nAchR, the EC50 is 120 nM. On to `CN1CCCc2cc(CNC(=O)N3CC4(CC(=O)c5ccc(F)cc5O4)C3)ccc21` [Example 71, 7′-Fluoro-N-[(1-methyl-1,2,3,4-tetrahydroquinolin-6-yl)methyl]-4′-oxo-3′,4′-dihydrospiro[azetidine-3,2′-[1]benzopyran]-1-carboxamide], for which, at human α7 nAchR, the concentration giving a half-maximal response (EC50) came to 2300 nM.
